Molecules are shown by their SMILES. Records with an inconclusive call do not appear. Calls of active or inactive are those of the source.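 Rule for the calls: active = compounds whose fitted half-maximal potency for killing cells lies within twice their highest tested dose; inconclusive = flat curve with 30 to 70% signal loss, or poor fit; inactive = the rest.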

Test system in the first assay: not listed separately
The assay is described as follows: cytotoxicity in HEK293 cells, dose response, cytotoxicity control, cell-based, dry powder samples (AID 1053191). Conditions: HEK293T viability, ATP luminescence, 72 h; at 50 µM (top of the series).
Regarding `Cc1cc2cc(CNC(=O)Nc3ccc(Cl)c(Cl)c3)ccc2n1C`, the activity change, negative = cytotoxic is -15.7% (inactive).

As for `COc1cc(CC2C(=O)Nc3ccccc32)cc(C)c1O` (centres undefined), the activity change, negative = cytotoxic was -16.6% (inactive).

Turning to `Cc1cccc(NC(=O)NCc2ccc3c(c2)cc(C)n3C)c1`, the activity change, negative = cytotoxic is -22.6% (inactive).

`Cc1ccc(CSc2nc3[nH]ncc3c(=O)[nH]2)cc1`: the activity change, negative = cytotoxic was -29.4% (inactive).

For the compound `OCc1ccc(-c2nn(Cc3ccccc3)c3ccccc23)o1`, the activity change, negative = cytotoxic was 4.83% (inactive).

`CCc1ccc(-n2c(=S)sc3c(=O)n(-c4ccccc4C)c(SCC(=O)O)nc32)cc1`: the activity change, negative = cytotoxic is 12.6% (inactive).

`COc1ccc(Nc2ccccc2N)cc1`: the activity change, negative = cytotoxic is -11.7% (inactive).

Regarding `Cc1cc2ccccc2n1CCNC(=O)COc1ccc2ccccc2c1`, the activity change, negative = cytotoxic was -12.6% (inactive).

As to `Cc1ccc(S(=O)(=O)NCc2ccc3c(c2)cc(C)n3C)cc1`, the activity change, negative = cytotoxic is -7.83% (inactive).

Take `O=C(O)C1CCN(c2nc(-c3ccccc3)c3cc(Br)ccc3n2)CC1`: the activity change, negative = cytotoxic was 13.4% (inactive).

Regarding `Cc1cc(C)c(S(=O)(=O)NCCn2c(C)cc3ccccc32)c(C)c1`, the activity change, negative = cytotoxic is -16.1% (inactive).

Take `CCc1cccc2c1NC1(CCCC1)CC2C` (centres undefined): the activity change, negative = cytotoxic was -4.91% (inactive).

With `CNc1ccccc1C(C)(C)c1cc(-c2cccc(OC)c2)no1`, the activity change, negative = cytotoxic is -41.9% (inactive).

The test system of the next assay is HEK293T viability, ATP luminescence, 72 h. Described as above.
Settings: not given
On to `O=C(c1c(F)cccc1F)N(Cc1ccccc1)Cc1ccccc1`, for which the concentration at half-maximal activity (AC50) is 50 µM.

The values are drawn from PubChem BioAssay AID1053191 (Broad Institute, 2014).
